According to PMC6269910 (Molecules, 2013):

Legend:
[1] = test system: acetic acid-induced abdominal constriction; test: Acetic acid-induced writhing (Koster) test; type: in vivo, mice; settings: 25 mg/kg oral
Protocol: Test samples, suspended in a mixture of distilled water and 0.5% sodium carboxymethyl cellulose (CMC), were given orally to the animals. The control group animals received the same experimental handling as those of the test groups, except that the drug treatment was replaced with appropriate volumes of the dosing vehicle. […] One hour after oral administration of test sample, each mouse was injected intraperitoneally with 3% (w/v) acetic acid solution (0.1 mL/10 g, bw). Starting 5 min after the acetic acid injection, the number of muscular contractions on mice were counted for a period of 10 min. A significant reduction in the number of writhings by any treatment as compared to the number of writhings in control animals was considered a positive analgesic response. The analgesic activity was expressed as a percentage change from writhing controls. ASA was used as a reference compound and administered at 200 mg/kg.

[2] = test system: superoxide dismutase (SOD); test: SOD activity in liver, kidney, colon, brain; type: in vivo, mice; settings: celecoxib 25 mg/kg oral, 72 h
Protocol: SOD is a major antioxidant enzyme found in cells, which protect cells from oxidative stress. SOD activity in the tissue samples was measured according to the previously described method.

glutathione (GSH) = test: GSH level in liver, kidney, colon, brain; type: in vivo, mice; settings: celecoxib 25 mg/kg oral, 72 h
Protocol: (§1) Tissue samples were homogenized with ice-cold 150 mM KCl for the determination of LPO and glutathione (GSH) levels. The LPO levels were assayed by monitoring TBARS formation as described above.

[3] = test system: carrageenan-induced hind paw edema; test: Carrageenan-induced hind paw edema model; type: in vivo, mice; settings: 25 mg/kg per os
Protocol: Locally bred balb/c mice of both sexes (30-35 g) were purchased from the animal breeding laboratories of Inonu University ([…], Turkey). The animals were fed a standard pellet diet and water ad libitum in a temperature-controlled room. On the day before the treatments, food was withdrawn, but the animals were allowed free access of water. The allocation of animals to different groups was randomized, and the experiments were carried out under blind conditions. Mice used in the present study were cared for in accordance with the directory of the Inonu University Animal Care Unit, which applies the guidelines of the National Institutes of Health on laboratory animal welfare. Procedures involving animals and their care were conducted in conformity with international laws and policies and animal studies accepted by Inonu University Ethical Council (2011/A17). Test samples, suspended in a mixture of distilled water and 0.5% sodium carboxymethyl cellulose (CMC), were given orally to the animals. The control group animals received the same experimental handling as those of the test groups, except that the drug treatment was replaced with appropriate volumes of the dosing vehicle. […] For the preliminary activity screening, each test group was composed of four mice. […] Because of the daily changing circumstance, we used another control group for each experiment. For the determination of the effects on carrageenan-induced paw oedema, the modified method of Kasahara et al. was employed. One hour after the oral administration of either test sample or dosing vehicle, each mouse was injected with a freshly prepared (0.5 mg/25 μL) suspension of carrageenan (Sigma, St. Louis, MO, USA) in physiological saline (154 mM NaCl). The subplantar tissue of the right hind paw was the injection site for all mice. The contralateral paw (left hind paw) was injected with 25 μL saline solution as the internal control. […] The difference in footpad thickness between the right and left foot indicated the degree of inflammation for each mouse. The change in paw volume, either increase or decrease, was calculated and compared with the control group (dosing vehicle) and analyzed using statistical methods.

[4] = biological target: T1, HCV NS5B RNA dependent RNA polymerase (Hepatitis C virus genotype 1b, UniProt P26663); test: NS5B inhibition assay (primer dependent elongation, poly rA-U12); type: biochemical
T1 construct: HCV NS5B RNA dependent RNA polymerase activity
T1 sequence (P26663 2420-3010): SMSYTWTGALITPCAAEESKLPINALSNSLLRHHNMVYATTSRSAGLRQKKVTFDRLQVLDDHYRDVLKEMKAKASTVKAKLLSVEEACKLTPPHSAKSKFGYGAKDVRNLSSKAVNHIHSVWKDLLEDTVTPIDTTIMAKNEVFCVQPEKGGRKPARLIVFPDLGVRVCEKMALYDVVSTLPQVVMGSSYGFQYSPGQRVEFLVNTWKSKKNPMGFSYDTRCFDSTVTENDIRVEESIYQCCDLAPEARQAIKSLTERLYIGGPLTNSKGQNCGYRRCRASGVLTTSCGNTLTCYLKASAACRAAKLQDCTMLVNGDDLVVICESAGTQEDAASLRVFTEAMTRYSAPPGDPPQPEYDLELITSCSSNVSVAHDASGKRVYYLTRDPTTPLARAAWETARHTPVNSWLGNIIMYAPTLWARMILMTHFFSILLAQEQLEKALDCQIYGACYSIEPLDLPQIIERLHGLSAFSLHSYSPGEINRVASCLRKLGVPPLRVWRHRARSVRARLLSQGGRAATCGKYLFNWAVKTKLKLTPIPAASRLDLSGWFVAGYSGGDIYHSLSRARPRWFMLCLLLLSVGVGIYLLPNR
Protocol: The compounds 1a–e and 2a–e were reconstituted in DMSO as 50 mM stocks, and serially diluted in DMSO to obtain working stocks. Wedelolactone, a known inhibitor of HCV NS5B activity, was employed as a reference compound. Preliminary screening was carried out at 100 μM to identify a wider range of compounds.
All synthesized compounds were evaluated for their effect on HCV NS5B RNA dependent RNA polymerase activity in primer dependent elongation assays as previously described. Activity of NS5B in the absence of the inhibitor but containing an equivalent amount of DMSO (control reaction) was set at 100% and that in the presence of the inhibitor was quantified relative to this control.

[5] = test system: lipid peroxidation in stomach; test: Lipid peroxidation in stomach (TBARS); type: in vivo, mice; settings: celecoxib 25 mg/kg
stomach = test: Gastric-ulcerogenic effect (ulcer score); type: in vivo, mice; settings: celecoxib 25 mg/kg
myeloperoxidase (MPO) = test: MPO activity in liver, kidney, colon, brain; type: in vivo, mice; settings: celecoxib 25 mg/kg oral, 72 h
Protocol: MPO is an enzyme that is found predominantly in the azurophilic granules of polymorphonuclear leukocytes (PMN). […] MPO activity was measured in tissues in a procedure similar to that documented by […] et al.

LPO = LPO (TBARS) level in liver, kidney, colon, brain; type: in vivo, mice; settings: celecoxib 25 mg/kg oral, 72 h
Protocol: as §1

[6] = brain, series with 1a 100 mg/kg
[7] = brain, series with 1a 200 mg/kg
[8] = colon, series with 1a 100 mg/kg
[9] = colon, series with 1a 200 mg/kg
[10] = kidney, series with 1a 100 mg/kg
[11] = kidney, series with 1a 200 mg/kg
[12] = liver, series with 1a 100 mg/kg
[13] = liver, series with 1a 200 mg/kg

Which “Writhing test (% inh.)” value [1] does the source give for `Cc1ccc(-c2cc(C(F)(F)F)nn2-c2ccc(S(N)(=O)=O)cc2)cc1` [Celecoxib, 4-[5-(4-methylphenyl)-3-(trifluoromethyl)-1H-pyrazole-1-yl]benzene-sulfonamide, reference compound] here?
Its value is 54%.

And the “Writhing test (Mean ± SEM)” value [1]?
Its value is 8.0 ± 1.3.

What about the SOD [2, 6] of the same molecule?
Its SOD is 24.84 ± 10.65 U/g tissue.

What about the SOD [2, 7] of the same molecule?
Its SOD is 20.41 ± 13.73 U/g tissue.

And the SOD [2, 8]?
The SOD was 16.85 ± 5.24 U/g tissue.

What about the SOD [2, 9] of the same molecule?
The SOD was 19.04 ± 5.60 U/g tissue.

And the SOD [2, 10]?
The SOD was 17.79 ± 7.47 U/g tissue.

And the SOD [2, 11]?
The SOD was 16.83 ± 9.71 U/g tissue.

And the SOD [2, 12]?
Its SOD is 22.78 ± 14.45 U/g tissue.

What about the SOD [2, 13] of the same molecule?
The SOD was 13.60 ± 11.98 U/g tissue.

What about the GSH (glutathione (GSH); [6]) of the same molecule?
Its GSH is 22.36 ± 2.45 µmol/g tissue.

What about the GSH (glutathione (GSH); [7]) of the same molecule?
The GSH was 20.2 ± 3.26 µmol/g tissue.

What about the GSH (glutathione (GSH); [8]) of the same molecule?
The GSH was 28.06 ± 1.45 µmol/g tissue.

And the GSH (glutathione (GSH); [9])?
Its GSH is 26.42 ± 3.46 µmol/g tissue.

And the GSH (glutathione (GSH); [10])?
Its GSH is 22.24 ± 4.17 µmol/g tissue.

What about the GSH (glutathione (GSH); [11]) of the same molecule?
Its GSH is 21.68 ± 5.56 µmol/g tissue.

And the GSH (glutathione (GSH); [12])?
Its GSH is 20.58 ± 4.25 µmol/g tissue.

What about the GSH (glutathione (GSH); [13]) of the same molecule?
The GSH was 22.14 ± 1.04 µmol/g tissue.

What about the “Swelling in thickness ± SEM” value ([3]; 90 min) of the same molecule?
The value was 57.0 ± 6.9 × 10^−2 mm.

And the “Swelling in thickness ± SEM” value ([3]; 180 min)?
The value was 42.0 ± 3.3 × 10^−2 mm.

What about the percent inhibitory activity ([3]; 180 min) of the same molecule?
The percent inhibitory activity was 54.3%.

And the “Swelling in thickness ± SEM” value ([3]; 270 min)?
Its value is 94.0 ± 10.4 × 10^−2 mm.

And the “Swelling in thickness ± SEM” value ([3]; 360 min)?
Its value is 103.0 ± 7.5 × 10^−2 mm.

What about the “Anti-NS5B Activity (% Inh., 100 µM)” value ([4]; 100 µM) of the same molecule?
The value was 9.5%.

What about the inhibition at 100 µM ([4]; read-out: Anti-NS5B Activity (% Inh., 100 µM), 100 µM) of the same molecule?
Its inhibition at 100 µM is about 10%.

What about the Lipid peroxidation [5] of the same molecule?
Its Lipid peroxidation is 417.8 ± 23.3 nmol TBARS/g wet weight.

What about the Ulcer score (stomach) of the same molecule?
The Ulcer score was 0/5.

What about the MPO (myeloperoxidase (MPO); [6]) of the same molecule?
Its MPO is 0.60 ± 0.23 U/gtissue.

What about the MPO (myeloperoxidase (MPO); [7]) of the same molecule?
Its MPO is 1.48 ± 0.46 U/gtissue.

And the MPO (myeloperoxidase (MPO); [8])?
The MPO was 0.52 ± 0.26 U/gtissue.

What about the MPO (myeloperoxidase (MPO); [9]) of the same molecule?
Its MPO is 0.46 ± 0.26 U/gtissue.

What about the MPO (myeloperoxidase (MPO); [10]) of the same molecule?
Its MPO is 3.36 ± 1.57 U/g tissue.

What about the MPO (myeloperoxidase (MPO); [11]) of the same molecule?
The MPO was 4.75 ± 1.59 U/g tissue.

And the MPO (myeloperoxidase (MPO); [12])?
Its MPO is 0.63 ± 0.30 U/gtissue.

And the MPO (myeloperoxidase (MPO); [13])?
The MPO was 0.19 ± 0.06 U/gtissue.

What about the LPO (LPO; [6]) of the same molecule?
The LPO was 8.18 ± 2.16 nmol/g tissue.

What about the LPO (LPO; [7]) of the same molecule?
The LPO was 8.26 ± 1.01 nmol/g tissue.

And the LPO (LPO; [8])?
The LPO was 7.12 ± 0.26 nmol/g tissue.

And the LPO (LPO; [9])?
Its LPO is 10.48 ± 2.69 nmol/g tissue.

What about the LPO (LPO; [10]) of the same molecule?
The LPO was 11.12 ± 2.41 nmol/g tissue.

And the LPO (LPO; [11])?
Its LPO is 11.30 ± 2.52 nmol/g tissue.

What about the LPO (LPO; [12]) of the same molecule?
The LPO was 9.56 ± 1.80 nmol/gtissue.

And the LPO (LPO; [13])?
Its LPO is 11.74 ± 2.25 nmol/gtissue.
